Measurements reported in EP0054873A1, “3,4-Di-substituted 1,2,5-oxadiazole-2 oxides, method for their preparation and pharmaceutical compositions containing them” (CASSELLA Aktiengesellschaft, priority 1980, dated 1982).

System: Bastardhunden
Test: Haemodynamic study of antianginal and antihypertensive effect in anaesthetised mongrel dogs
Format: in vivo
Settings: change from steady state
Procedure: Die Untersuchungen über die antianginöse und antihypertensive Wirkung der Verbindungen der Formel I wurden an Bastardhunden beiderlei Geschlechts in Pentobarbital-Narkose (30 bis 40 mg/kg i.v.) oder in Urethan-Chloralose-Narkose (3 ml/kg Urethan-Chloralose-Gemisch i.v. = 20 mg/kg Chloralose und 250 mg/kg Urethan) durchgeführt. Die Beatmung der Tiere erfolgte mit einem Bird-Mark-7-Respi- rator. […] Während des gesamten Versuchs erhielten die Tiere mit Pentobarbital-Narkose eine Dauerinfusion von Pentobarbital i.v. = 4 mg/kg/6ml/h, um eine konstante Narkosetiefe zu gewährleisten; die Tiere mit Urethan-Chloralose-Narkose erhielten keine Dauerinfusion. Die Infusion wurde durch die Vena cephalica gegeben. Nach der Präparation des Versuchstieres wurde ca. 1 Stunde gewartet, bis sich alle haemodynamischen Parameter eingestellt hatten (steady state). Danach wurde mit dem eigentlichen Versuch begonnen.
Der systolische und diastolische Blutdruck wurde peripher in der Arteria femoralis über einen Statham-Druckaufnehmer gemessen. Ein über die Arteria carotis in den linken Ventrikel geschobener Millar-Tip-Katheter lieferte das Signal für den LVEDP(linksvcntrikulärer enddiastolischer Druck) und die Herzfrequenz. Mit einem zweiten, über die Vena ju-fularis eingeschobenen Tip-Katheter wurde der mittlere Blutdruck in der Arteria pulmonalis erfaßt. Die erhaltenen Ergebnisse sind in der folgenden Tabelle angegeben.

Compound: CNC(=O)c1c(C)no[n+]1[O-] [A]
- BDm Δ (mittlerer peripherer Blutdruck) (Dosis 0,05 mg/kg i.v.): -30 mmHg
- LVEDP Δ (linksventrikulärer enddiastolischer Druck) (Dosis 0,05 mg/kg i.v.): -3 mm/Hg
- PAP Δ (mittlerer Pulmonalarteriendruck) (Dosis 0,05 mg/kg i.v.): -2 mmHg

Compound: COCCNC(=O)c1no[n+]([O-])c1C [B]
- BDm Δ (mittlerer peripherer Blutdruck) (Dosis 0,1 mg/kg i.v.): -25 mmHg
- LVEDP Δ (linksventrikulärer enddiastolischer Druck) (Dosis 0,1 mg/kg i.v.): -2,5 mm/Hg
- PAP Δ (mittlerer Pulmonalarteriendruck) (Dosis 0,1 mg/kg i.v.): -1 mmHg

Compound: Cc1c(C(=O)NCc2cccnc2)no[n+]1[O-] [C]
- BDm Δ (mittlerer peripherer Blutdruck) (Dosis 0,05 mg/kg i.v.): -35 mmHg
- LVEDP Δ (linksventrikulärer enddiastolischer Druck) (Dosis 0,05 mg/kg i.v.): -2 mm/Hg
- PAP Δ (mittlerer Pulmonalarteriendruck) (Dosis 0,05 mg/kg i.v.): -1 mmHg
